Experimental data reported in ChEMBL document CHEMBL1129269, “1-aryl-4-[(1-tetralinyl)alkyl]piperazines: alkylamido and alkylamino derivatives. Synthesis, 5-HT1A receptor affinity, and selectivity. 3” (J Med Chem, 1996).

Columns and labels:
[1] = target: T1, Adrenergic receptor alpha-1 (Rattus norvegicus, UniProt P15823+P23944+P43140); assay: Binding affinity against Alpha-1 adrenergic receptor in rat brain membrane using [3H]prazosin as radioligand; assay type: cell membranes
T1 sequence (P15823 whole entry): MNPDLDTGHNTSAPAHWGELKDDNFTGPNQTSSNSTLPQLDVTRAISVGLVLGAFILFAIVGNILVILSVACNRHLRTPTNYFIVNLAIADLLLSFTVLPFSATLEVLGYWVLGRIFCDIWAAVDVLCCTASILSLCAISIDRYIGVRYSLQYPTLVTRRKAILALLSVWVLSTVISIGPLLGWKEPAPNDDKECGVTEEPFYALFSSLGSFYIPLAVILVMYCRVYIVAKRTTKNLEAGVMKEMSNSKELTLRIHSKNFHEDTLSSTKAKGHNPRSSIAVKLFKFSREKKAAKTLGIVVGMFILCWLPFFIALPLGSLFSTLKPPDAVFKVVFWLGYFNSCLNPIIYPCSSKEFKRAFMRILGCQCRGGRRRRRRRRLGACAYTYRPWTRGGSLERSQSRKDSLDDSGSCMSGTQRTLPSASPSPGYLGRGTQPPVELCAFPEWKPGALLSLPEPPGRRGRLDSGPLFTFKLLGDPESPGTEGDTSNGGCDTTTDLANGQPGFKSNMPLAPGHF
T1 sequence (P23944 whole entry): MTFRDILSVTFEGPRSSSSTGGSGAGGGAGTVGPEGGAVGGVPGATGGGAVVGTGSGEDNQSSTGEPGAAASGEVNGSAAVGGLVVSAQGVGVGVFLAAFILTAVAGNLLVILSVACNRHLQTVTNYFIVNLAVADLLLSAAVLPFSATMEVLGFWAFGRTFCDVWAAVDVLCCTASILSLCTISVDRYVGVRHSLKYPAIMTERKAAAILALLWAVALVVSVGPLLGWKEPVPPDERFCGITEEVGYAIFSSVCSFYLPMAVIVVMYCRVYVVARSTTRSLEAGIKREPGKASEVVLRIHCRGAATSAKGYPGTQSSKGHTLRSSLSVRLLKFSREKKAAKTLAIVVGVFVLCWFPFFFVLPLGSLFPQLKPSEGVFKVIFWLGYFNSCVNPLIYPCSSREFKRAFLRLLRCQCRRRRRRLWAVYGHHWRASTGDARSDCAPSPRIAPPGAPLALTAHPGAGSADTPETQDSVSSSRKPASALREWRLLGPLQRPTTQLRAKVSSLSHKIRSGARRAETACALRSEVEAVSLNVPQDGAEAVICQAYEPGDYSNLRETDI
T1 sequence (P43140 whole entry): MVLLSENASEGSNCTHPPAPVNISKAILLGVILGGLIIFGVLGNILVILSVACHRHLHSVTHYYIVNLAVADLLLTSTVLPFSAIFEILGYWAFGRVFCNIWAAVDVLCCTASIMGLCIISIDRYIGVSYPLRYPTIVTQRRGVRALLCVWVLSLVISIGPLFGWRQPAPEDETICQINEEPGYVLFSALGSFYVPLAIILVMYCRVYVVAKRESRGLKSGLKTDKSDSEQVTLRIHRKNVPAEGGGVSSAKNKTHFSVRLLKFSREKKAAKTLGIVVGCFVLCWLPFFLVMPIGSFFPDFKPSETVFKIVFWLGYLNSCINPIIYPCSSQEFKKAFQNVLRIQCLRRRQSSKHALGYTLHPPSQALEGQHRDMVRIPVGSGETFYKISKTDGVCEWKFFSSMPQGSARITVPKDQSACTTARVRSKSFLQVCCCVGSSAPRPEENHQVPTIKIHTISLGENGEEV

D(2) dopamine receptor = D(2) dopamine receptor (Rattus norvegicus, UniProt P61169); assay: Compound was evaluated for their affinity against Dopamine receptor D2 by displacing [3H]spiperone in rat striatal membrane; assay type: cell membranes, Striatum
[2] = target: T2, 5-hydroxytryptamine receptor 1A (Rattus norvegicus, UniProt P19327); assay: Binding affinity against 5-hydroxytryptamine 1A receptor in rat hippocampus membranes using [3H]8-OH-DPAT as radioligand; assay type: cell membranes, Membrane
T2 sequence (P19327 whole entry): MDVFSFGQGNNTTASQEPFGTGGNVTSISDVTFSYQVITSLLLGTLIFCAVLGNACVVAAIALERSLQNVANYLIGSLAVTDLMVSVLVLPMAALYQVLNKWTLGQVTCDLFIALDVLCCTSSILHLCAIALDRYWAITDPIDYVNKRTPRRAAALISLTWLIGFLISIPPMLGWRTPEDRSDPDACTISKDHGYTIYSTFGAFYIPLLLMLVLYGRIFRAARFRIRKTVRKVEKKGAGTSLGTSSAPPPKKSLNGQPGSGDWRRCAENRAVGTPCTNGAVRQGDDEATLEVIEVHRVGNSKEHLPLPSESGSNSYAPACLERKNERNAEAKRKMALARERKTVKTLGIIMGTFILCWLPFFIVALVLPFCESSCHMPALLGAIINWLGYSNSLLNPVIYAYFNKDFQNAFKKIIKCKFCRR

[3] = target: T3, Adrenergic receptor alpha-2 (Rattus norvegicus, UniProt P22086+P19328+P22909); assay: Binding affinity against Alpha-2 adrenergic receptor in rat brain membrane using [3H]yohimbine as radioligand; assay type: cell membranes
T3 sequence (P22086 whole entry): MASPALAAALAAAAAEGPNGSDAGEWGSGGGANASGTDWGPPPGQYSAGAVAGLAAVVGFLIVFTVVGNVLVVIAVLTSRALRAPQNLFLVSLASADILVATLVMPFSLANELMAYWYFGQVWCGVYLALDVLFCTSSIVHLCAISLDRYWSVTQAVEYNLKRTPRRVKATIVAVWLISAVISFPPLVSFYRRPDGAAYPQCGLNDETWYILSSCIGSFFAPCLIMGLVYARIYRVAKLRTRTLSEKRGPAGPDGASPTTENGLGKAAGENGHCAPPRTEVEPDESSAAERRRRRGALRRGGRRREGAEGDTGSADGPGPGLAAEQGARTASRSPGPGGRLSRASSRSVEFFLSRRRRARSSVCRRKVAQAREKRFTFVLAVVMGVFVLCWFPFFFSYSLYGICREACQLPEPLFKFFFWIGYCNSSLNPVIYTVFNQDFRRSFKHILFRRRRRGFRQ
T3 sequence (P19328 whole entry): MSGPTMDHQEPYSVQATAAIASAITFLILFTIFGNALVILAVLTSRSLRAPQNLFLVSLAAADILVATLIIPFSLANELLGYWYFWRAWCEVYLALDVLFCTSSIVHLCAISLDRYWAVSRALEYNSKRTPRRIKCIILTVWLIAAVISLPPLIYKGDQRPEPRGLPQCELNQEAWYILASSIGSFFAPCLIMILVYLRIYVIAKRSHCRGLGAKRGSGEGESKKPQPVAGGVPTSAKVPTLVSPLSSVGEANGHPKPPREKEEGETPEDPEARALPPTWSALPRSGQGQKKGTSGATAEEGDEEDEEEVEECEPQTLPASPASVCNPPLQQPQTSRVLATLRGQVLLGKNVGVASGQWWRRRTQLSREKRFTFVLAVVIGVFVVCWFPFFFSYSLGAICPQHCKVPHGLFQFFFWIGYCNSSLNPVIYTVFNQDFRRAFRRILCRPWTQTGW
T3 sequence (P22909 whole entry): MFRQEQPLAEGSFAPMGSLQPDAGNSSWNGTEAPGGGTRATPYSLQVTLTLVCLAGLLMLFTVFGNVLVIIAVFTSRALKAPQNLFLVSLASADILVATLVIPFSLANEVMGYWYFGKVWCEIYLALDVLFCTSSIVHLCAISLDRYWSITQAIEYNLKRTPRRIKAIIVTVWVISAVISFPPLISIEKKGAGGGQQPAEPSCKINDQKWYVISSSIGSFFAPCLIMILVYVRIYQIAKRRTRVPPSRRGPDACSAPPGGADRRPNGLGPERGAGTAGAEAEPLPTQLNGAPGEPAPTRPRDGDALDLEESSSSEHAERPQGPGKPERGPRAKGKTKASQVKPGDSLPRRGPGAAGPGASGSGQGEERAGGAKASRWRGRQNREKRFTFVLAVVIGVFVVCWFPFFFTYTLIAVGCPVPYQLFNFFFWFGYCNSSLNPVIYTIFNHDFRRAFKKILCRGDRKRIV

[4] = target: Serotonin 2 (5-HT2) receptor (Rattus norvegicus, UniProt P30994+P08909+P14842); assay: Binding affinity against 5-hydroxytryptamine 2 receptor in rat brain using [3H]ketanserin as radioligand; assay type: tissue-based

D(2) dopamine receptor, sequence (P61169 whole entry): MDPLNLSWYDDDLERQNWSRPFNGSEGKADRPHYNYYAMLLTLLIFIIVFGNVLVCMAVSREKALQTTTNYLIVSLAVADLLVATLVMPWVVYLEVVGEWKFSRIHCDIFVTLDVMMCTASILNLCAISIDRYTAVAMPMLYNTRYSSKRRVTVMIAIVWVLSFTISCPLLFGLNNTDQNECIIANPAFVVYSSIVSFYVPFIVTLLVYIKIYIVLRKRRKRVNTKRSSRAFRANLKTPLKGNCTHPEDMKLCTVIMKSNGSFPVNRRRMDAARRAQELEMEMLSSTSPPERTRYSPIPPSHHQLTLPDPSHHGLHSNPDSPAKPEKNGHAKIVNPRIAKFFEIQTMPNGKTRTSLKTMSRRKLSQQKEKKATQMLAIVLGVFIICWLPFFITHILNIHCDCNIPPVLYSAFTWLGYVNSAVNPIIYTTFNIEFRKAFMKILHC

IC50 [1]: 220 nM | IC50 (D(2) dopamine receptor): 380 nM | IC50 [2]: 7.7 nM | IC50 [3]: 280 nM | IC50 [4]: 2580 nM
Structure (SMILES): COc1ccccc1N1CCN(CCNC2CCCc3c(OC)cccc32)CC1 (stereo not given)
